Experimental data reported in PubChem BioAssay (NCI).
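Exposure lasted 48 hours, with cells grown in 96-well plates and compounds tested at five concentrations. GI50 is the concentration that inhibits growth by half. TGI marks complete inhibition of growth.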

Columns and labels:
Test in all cases: growth of human tumour cells (NCI), 48 h
[1] = tested on: 786-0 renal
[2] = tested on: A498 renal
[3] = tested on: A549 NSCLC
[4] = tested on: ACHN renal
[5] = tested on: BT-549 breast
[6] = tested on: CAKI-1 renal
[7] = tested on: CCRF-CEM leukemia
[8] = tested on: COLO 205 colon
[9] = tested on: DU-145 prostate
[10] = tested on: EKVX NSCLC
[11] = tested on: HCC-2998 colon
[12] = tested on: HCT-116 colon
[13] = tested on: HCT-15 colon
[14] = tested on: HL-60(TB) leukemia
[15] = tested on: HOP-62 NSCLC
[16] = tested on: HS 578T breast
[17] = tested on: HT29 colon
[18] = tested on: IGROV1 ovarian
[19] = tested on: K-562 leukemia
[20] = tested on: KM12 colon
[21] = tested on: LOX IMVI melanoma
[22] = tested on: M14 melanoma
[23] = tested on: MALME-3M melanoma
[24] = tested on: MCF7 breast
[25] = tested on: MDA-MB-231 breast
[26] = tested on: MDA-MB-435
[27] = tested on: MOLT-4 leukemia
[28] = tested on: NCI-H226 lung
[29] = tested on: NCI-H23 lung
[30] = tested on: NCI-H460 lung
[31] = tested on: NCI-H522 lung
[32] = tested on: NCI/ADR-RES ovarian
[33] = tested on: OVCAR-3 ovarian
[34] = tested on: OVCAR-4 ovarian
[35] = tested on: OVCAR-5 ovarian
[36] = tested on: OVCAR-8 ovarian
[37] = tested on: PC-3 prostate
[38] = tested on: RPMI-8226 leukemia
[39] = tested on: RXF 393 renal
[40] = tested on: SF-268 CNS
[41] = tested on: SF-295 CNS
[42] = tested on: SF-539 CNS
[43] = tested on: SK-MEL-2 melanoma
[44] = tested on: SK-MEL-28 melanoma
[45] = tested on: SK-MEL-5 melanoma
[46] = tested on: SK-OV-3 ovarian
[47] = tested on: SN12C renal
[48] = tested on: SNB-19 CNS
[49] = tested on: SNB-75 CNS
[50] = tested on: SR leukemia
[51] = tested on: SW-620 colon
[52] = tested on: T-47D breast
[53] = tested on: TK-10 renal
[54] = tested on: U251 CNS
[55] = tested on: UACC-257 melanoma
[56] = tested on: UACC-62 melanoma
[57] = tested on: UO-31 renal
[58] = tested on: HOP-92 NSCLC

C[C@@]1(N2C(=O)OC[C@@H]2c2ccccc2)C(=O)N([C@H](CC(=O)N2CCC(N3CCCCC3)CC2)C(=O)NCc2cccc(C(F)(F)F)c2)[C@@H]1/C=C/c1ccccc1
GI50 [1]: 1.81 µM | TGI [1]: 3.41 µM | GI50 [2]: 1.88 µM | TGI [2]: 5.98 µM | GI50 [3]: 2.06 µM | TGI [3]: 4.23 µM | GI50 [4]: 2.03 µM | TGI [4]: 4.61 µM | GI50 [5]: 3.29 µM | TGI [5]: 9.33 µM | GI50 [6]: 2.3 µM | TGI [6]: 6.55 µM | GI50 [7]: 2.97 µM | TGI [7]: 7.07 µM | GI50 [8]: 1.8 µM | TGI [8]: 3.58 µM | GI50 [9]: 2.79 µM | TGI [9]: 8.47 µM | GI50 [10]: 1.56 µM | TGI [10]: 3.69 µM | GI50 [11]: 1.98 µM | TGI [11]: 3.79 µM | GI50 [12]: 1.93 µM | TGI [12]: 3.51 µM | GI50 [13]: 1.79 µM | TGI [13]: 3.62 µM | GI50 [14]: 2.13 µM | TGI [14]: 4.65 µM | GI50 [15]: 2.03 µM | TGI [15]: 5.76 µM | GI50 [16]: 2.09 µM | TGI [16]: 4.78 µM | GI50 [17]: 2.31 µM | TGI [17]: 5.7 µM | GI50 [18]: 2.73 µM | TGI [18]: 8.49 µM | GI50 [19]: 2.07 µM | TGI [19]: 4.82 µM | GI50 [20]: 2.42 µM | TGI [20]: 6.21 µM | GI50 [21]: 1.81 µM | TGI [21]: 3.5 µM | GI50 [22]: 1.93 µM | TGI [22]: 3.6 µM | GI50 [23]: 1.83 µM | TGI [23]: 3.54 µM | GI50 [24]: 1.85 µM | TGI [24]: 4.24 µM | GI50 [25]: 2.07 µM | TGI [25]: 4.03 µM | GI50 [26]: 1.74 µM | TGI [26]: 3.26 µM | GI50 [27]: 2.26 µM | TGI [27]: 6.42 µM | GI50 [28]: 22.5 µM | TGI [28]: 39.7 µM | GI50 [29]: 4.12 µM | TGI [29]: 16.7 µM | GI50 [30]: 2 µM | TGI [30]: 3.86 µM | GI50 [31]: 1.86 µM | TGI [31]: 3.85 µM | GI50 [32]: 10.2 µM | TGI [32]: 24 µM | GI50 [33]: 1.85 µM | TGI [33]: 3.91 µM | GI50 [34]: 2.6 µM | TGI [34]: 9.86 µM | GI50 [35]: 2.78 µM | TGI [35]: 9.4 µM | GI50 [36]: 2.77 µM | TGI [36]: 7.24 µM | GI50 [37]: 4.15 µM | TGI [37]: 15.7 µM | GI50 [38]: 2.59 µM | TGI [38]: 6.38 µM | GI50 [39]: 2.1 µM | TGI [39]: 4.51 µM | GI50 [40]: 1.76 µM | TGI [40]: 3.94 µM | GI50 [41]: 1.73 µM | TGI [41]: 3.42 µM | GI50 [42]: 1.77 µM | TGI [42]: 3.32 µM | GI50 [43]: 2.13 µM | TGI [43]: 4.22 µM | GI50 [44]: 1.8 µM | TGI [44]: 3.51 µM | GI50 [45]: 1.81 µM | TGI [45]: 3.21 µM | GI50 [46]: 2.09 µM | TGI [46]: 4.83 µM | GI50 [47]: 2 µM | TGI [47]: 4.31 µM | GI50 [48]: 2.55 µM | TGI [48]: 6.56 µM | GI50 [49]: 1.28 µM | TGI [49]: 2.95 µM | GI50 [50]: 1.94 µM | TGI [50]: 4.7 µM | GI50 [51]: 1.98 µM | TGI [51]: 4.09 µM | GI50 [52]: 1.77 µM | TGI [52]: 3.53 µM | GI50 [53]: 1.8 µM | TGI [53]: 3.76 µM | GI50 [54]: 1.83 µM | TGI [54]: 3.43 µM | GI50 [55]: 2.09 µM | TGI [55]: 3.97 µM | GI50 [56]: 1.85 µM | TGI [56]: 3.78 µM | GI50 [57]: 1.79 µM | TGI [57]: 3.52 µM

O=C1C(Cl)=C(Nc2cccc(O)c2)C(=O)N1c1cccc(Cl)c1Cl
GI50 [1]: 18.2 µM | TGI [1]: 63.2 µM | GI50 [3]: 15 µM | TGI [3]: 45.9 µM | GI50 [4]: 19.1 µM | TGI [4]: > 100 µM | GI50 [5]: 24.5 µM | TGI [5]: 61.2 µM | GI50 [6]: 3.14 µM | TGI [6]: 20.2 µM | GI50 [7]: 8.38 µM | TGI [7]: 50.4 µM | GI50 [8]: 15.3 µM | TGI [8]: 38.9 µM | GI50 [9]: 22.7 µM | TGI [9]: 48 µM | GI50 [10]: 49.6 µM | TGI [10]: > 100 µM | GI50 [12]: 11.2 µM | TGI [12]: 23.2 µM | GI50 [13]: 20.7 µM | TGI [13]: 56.7 µM | GI50 [15]: 15.9 µM | TGI [15]: 62.9 µM | GI50 [58]: 0.262 µM | TGI [58]: 5.91 µM | GI50 [16]: 1.71 µM | TGI [16]: 14.4 µM | GI50 [17]: 18.5 µM | TGI [17]: 58.3 µM | GI50 [18]: 5.96 µM | TGI [18]: 23.4 µM | GI50 [19]: 13.5 µM | TGI [19]: 29.6 µM | GI50 [20]: 24.6 µM | TGI [20]: 86.8 µM | GI50 [21]: 12.5 µM | TGI [21]: 28.5 µM | GI50 [22]: 14.8 µM | TGI [22]: 31.7 µM | GI50 [23]: 11.7 µM | TGI [23]: 53.9 µM | GI50 [24]: 13.7 µM | TGI [24]: 42.7 µM | GI50 [25]: 12.3 µM | TGI [25]: 34.2 µM | GI50 [26]: 17.9 µM | TGI [26]: 43.1 µM | GI50 [27]: 2.31 µM | TGI [27]: 11.8 µM | GI50 [29]: 14.4 µM | TGI [29]: 34.6 µM | GI50 [30]: 14.8 µM | TGI [30]: 51.5 µM | GI50 [31]: 12.4 µM | TGI [31]: 27 µM | GI50 [32]: 18.9 µM | TGI [32]: 46 µM | GI50 [34]: 15.6 µM | TGI [34]: 40.5 µM | GI50 [35]: 22.4 µM | TGI [35]: 57.7 µM | GI50 [36]: 15.1 µM | TGI [36]: 30.4 µM | GI50 [37]: 6.92 µM | TGI [37]: 28.6 µM | GI50 [38]: 1.56 µM | TGI [38]: 16.2 µM | GI50 [39]: 18.4 µM | TGI [39]: 42.4 µM | GI50 [40]: 11.7 µM | TGI [40]: 28.8 µM | GI50 [41]: 3.28 µM | TGI [41]: 25.2 µM | GI50 [43]: 15.2 µM | TGI [43]: 35.9 µM | GI50 [44]: 24.4 µM | TGI [44]: > 100 µM | GI50 [45]: 7.01 µM | TGI [45]: 21.7 µM | GI50 [46]: 32.9 µM | TGI [46]: > 100 µM | GI50 [47]: 14.5 µM | TGI [47]: 28.2 µM | GI50 [48]: 19.1 µM | TGI [48]: 82.9 µM | GI50 [50]: 0.57 µM | TGI [50]: 10.3 µM | GI50 [51]: 15.2 µM | TGI [51]: 34.5 µM | GI50 [52]: 16.8 µM | TGI [52]: 86.3 µM | GI50 [53]: 20.2 µM | TGI [53]: 80 µM | GI50 [54]: 12.4 µM | TGI [54]: 30.8 µM | GI50 [56]: 14.6 µM | TGI [56]: 34 µM | GI50 [57]: 23.3 µM | TGI [57]: > 100 µM
